# Source: patent US20060069132A1, “Azolecarboxamide herbicides” (priority 2004, published 2006)
# Experiments:
# wheat = test: Test B postemergence herbicide test; type: in vivo, Triticum aestivum; set-up: key to Wheat plant response rating: 0 = no effect, 100 = complete control; conditions: postemergence
# In short: (§1)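 Formulated test chemicals went onto postemergence plants measuring 2 to 18 cm, at one to four leaves. For the paddy assay, species had reached two leaves. Scoring took place 13–15 days later by eye, relative to untreated plants, using 0 for no effect up to 100 for full control.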
# [1] = tested on: smallflower umbrella sedge; test: Test C flooded paddy test; type: in vivo, Cyperus difformis
# rice [2] = test: Test B flooded paddy test; type: in vivo, Oryza sativa; conditions: 1000 g ai/ha, scale 0 to 100 (0 no effect, 100 complete control)
# In short: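 After treating 2-leaf paddy plants or 2–18 cm postemergence plants (1 to 4 leaves) with formulated chemical, researchers kept them in a greenhouse for 13–15 days. Effects were judged visually versus controls: 0 indicates none, 100 total control.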
# barnyardgrass [3] = test: Test B flooded paddy test; type: in vivo, Echinochloa crus-galli; conditions: 1000 g ai/ha, scale 0 to 100 (0 no effect, 100 complete control)
# In short: (§2)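 Visual ratings, 0 (no effect) to 100 (complete control), made versus controls after 13–15 d greenhouse. Paddy plants treated at 2-leaf stage; postemergence plants at 1- to 4-leaf stage, 2–18 cm tall.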
# ducksalad [4] = test: Test C flooded paddy test; type: in vivo, Heteranthera limosa
# barnyardgrass [5] = test: Test B pre-/postemergence herbicide test; type: in vivo, Echinochloa crus-galli; conditions: for Barnyardgrass plant response rating: postemergence
# In short: (§3)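 Visual rating, 0 (no effect) to 100 (complete control), versus untreated controls after 13–15 d in greenhouse. Pre- and postemergence applications (postemergence plants 2–18 cm, 1–4 leaves); flooded paddy arm at 2-leaf stage. Compounds in non-phytotoxic solvent plus surfactant.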
# lambsquarters = test: Test B pre-/postemergence herbicide test; type: in vivo, Chenopodium album; conditions: for Lambsquarters plant response rating: postemergence
# In short: (§4)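 Flooded paddy rice and barnyardgrass were treated at the 2-leaf stage; upland plantings received compound either on sown seed or on 1- to 4-leaf seedlings. All were kept 13–15 days in a greenhouse and scored visually, 0–100, relative to untreated plants.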
# [6] = tested on: small flower umbrella sedge; test: Test B flooded paddy test; type: in vivo, Cyperus difformis; conditions: 1000 g ai/ha, scale 0 to 100 (0 no effect, 100 complete control)
# In short: as §2
# blackgrass = test: Test B postemergence herbicide test; type: in vivo, Alopecurus myosuroides; conditions: postemergence
# In short: as §2
# morningglory = test: Test B pre-/postemergence herbicide test; type: in vivo, Ipomoea coccinea; conditions: for Morningglory plant response rating: postemergence
# In short: as §3
# large crabgrass = test: Test B pre-/postemergence herbicide test; type: in vivo, Digitaria sanguinalis; conditions: for Crabgrass, Large plant response rating: postemergence
# In short: as §4
# wild oat = test: Test B postemergence herbicide test; type: in vivo, Avena fatua; conditions: postemergence
# In short: as §1
# rice [7] = test: Test C flooded paddy test; type: in vivo, Oryza sativa
# In short: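 Postemergence sprays applied to plants 2 to 18 cm tall (1- to 4-leaf stage); paddy species grown to 2-leaf stage under flooding. After 12 to 14 days in greenhouse, visual rating versus untreated controls on 0–100 scale (0 no effect, 100 complete control).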
# Surinam grass = test: Test B pre-/postemergence herbicide test; type: in vivo, Urochloa decumbens; conditions: for Surinam Grass plant response rating: postemergence
# In short: as §4
# corn = test: Test B pre-/postemergence herbicide test; type: in vivo, Zea mays; conditions: for Corn plant response rating: postemergence
# In short: as §4
# ducksalad [8] = test: Test B flooded paddy test; type: in vivo, Heteranthera limosa; conditions: 1000 g ai/ha, scale 0 to 100 (0 no effect, 100 complete control)
# In short: as §2
# rice [9] = test: Test B pre-/postemergence herbicide test; type: in vivo, Oryza sativa; conditions: 0 = no effect, 100 = complete control, preemergence
# In short: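 Evaluation is visual, comparing treated with control plants on a scale where 0 means no effect and 100 means full control. Treatments were preemergence, or postemergence on seedlings 2–18 cm tall, and held 13–15 days in the greenhouse.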
# giant foxtail = test: Test B pre-/postemergence herbicide test; type: in vivo, Setaria faberi; conditions: for Foxtail, Giant plant response rating: postemergence
# In short: as §4
# barnyardgrass [10] = test: Test C flooded paddy test; type: in vivo, Echinochloa crus-galli
# In short: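 Greenhouse test with a 12–14 day hold after application and visual comparison with controls. Emerged plants were 1- to 4-leaf stage (2–18 cm) when sprayed postemergence, and the paddy barnyardgrass was at 2 leaves under flooded conditions. 100 = complete control.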
# cocklebur = test: Test B pre-/postemergence herbicide test; type: in vivo, Xanthium strumarium; conditions: for Cocklebur plant response rating: postemergence
# In short: as §3
# pigweed = test: Test B pre-/postemergence herbicide test; type: in vivo, Amaranthus retroflexus; conditions: for Pigweed plant response rating: postemergence
# In short: as §4
# velvetleaf = test: Test B pre-/postemergence herbicide test; type: in vivo, Abutilon theophrasti; conditions: for Velvetleaf plant response rating: postemergence
# In short: as §4
# [11] = 125 g ai/ha, visual rating, scale 0 (no effect) to 100 (complete control)
# [12] = 500 g ai/ha, scale 0 to 100, 0 is no effect, 100 is complete control
# [13] = 125 g ai/ha, scale 0 to 100 (0 no effect, 100 complete control)
# [14] = 250 g ai/ha, scale of 0 to 100, 0 is no effect, 100 is complete control
# [15] = 500 g ai/ha, visual rating after 12 to 14 days, scale 0 to 100 (0 no effect, 100 complete control)
# [16] = 125 g ai/ha, 0 = no effect, 100 = complete control, preemergence
# [17] = 500 g ai/ha, visual rating, 0 = no effect, 100 = complete control, preemergence
smiles,measurement,setting,value
CCN(CC)C(=O)c1ccc(F)c(NC(=O)C2CC(C(C)(C)C)=NN2CC)c1 (racemic) [Compound 308],Wheat plant response rating,wheat; [11],10
same,Wheat plant response rating,wheat; [12],20
same,"Sedge, Umbrella plant response rating","[1]; 62 g ai/ha, scale 0 to 100",0
same,"Sedge, Umbrella plant response rating",[1]; [13],25
same,"Sedge, Umbrella plant response rating",[1]; [14],70
same,"Plant response rating, Sedge, Umbrella",[1]; [15],80
same,Rice plant response rating,rice [2],70
same,Barnyardgrass plant response rating,barnyardgrass [3],90
same,Ducksalad plant response rating,"ducksalad [4]; 62 g ai/ha, scale 0 to 100",0
same,Ducksalad plant response rating,ducksalad [4]; [13],0
same,Ducksalad plant response rating,ducksalad [4]; [14],15
same,"Plant response rating, Ducksalad",ducksalad [4]; [15],75
same,Barnyardgrass plant response rating (0 to 100 scale),barnyardgrass [5]; [16],20
same,Barnyardgrass plant response rating,barnyardgrass [5]; [11],0
same,"Plant response rating, Barnyardgrass",barnyardgrass [5]; [17],80
same,Barnyardgrass plant response rating,barnyardgrass [5]; [12],10
same,Lambsquarters plant response rating (0 to 100 scale),lambsquarters; [16],100
same,Lambsquarters plant response rating,lambsquarters; [11],50
same,"Plant response rating, Lambsquarters",lambsquarters; [17],100
same,Lambsquarters plant response rating,lambsquarters; [12],60
same,"Sedge, Umbrella plant response rating",[6],90
same,Blackgrass plant response rating,blackgrass; [11],10
same,Blackgrass plant response rating,blackgrass; [12],30
same,Morningglory plant response rating (0 to 100 scale),morningglory; [16],0
same,Morningglory plant response rating,morningglory; [11],0
same,"Plant response rating, Morningglory",morningglory; [17],10
same,Morningglory plant response rating,morningglory; [12],20
same,"Crabgrass, Large plant response rating (0 to 100 scale)",large crabgrass; [16],40
same,"Crabgrass, Large plant response rating",large crabgrass; [11],0
same,"Plant response rating, Crabgrass, Large",large crabgrass; [17],70
same,"Crabgrass, Large plant response rating",large crabgrass; [12],10
same,"Oat, Wild plant response rating",wild oat; [11],10
same,"Oat, Wild plant response rating",wild oat; [12],20
same,Rice plant response rating,"rice [7]; 62 g ai/ha, scale 0 to 100",15
same,Rice plant response rating,rice [7]; [13],25
same,Rice plant response rating,rice [7]; [14],65
same,"Plant response rating, Rice",rice [7]; [15],70
same,Surinam Grass plant response rating (0 to 100 scale),Surinam grass; [16],20
same,Surinam Grass plant response rating,Surinam grass; [11],10
same,"Plant response rating, Surinam Grass",Surinam grass; [17],60
same,Surinam Grass plant response rating,Surinam grass; [12],20
same,Corn plant response rating (0 to 100 scale),corn; [16],20
same,Corn plant response rating,corn; [11],0
same,"Plant response rating, Corn",corn; [17],70
same,Corn plant response rating,corn; [12],10
same,Ducksalad plant response rating,ducksalad [8],90
same,Rice plant response rating (0 to 100 scale),rice [9]; 125 g ai/ha,20
same,"Plant response rating, Rice","rice [9]; 500 g ai/ha, visual rating",50
same,"Foxtail, Giant plant response rating (0 to 100 scale)",giant foxtail; [16],10
same,"Foxtail, Giant plant response rating",giant foxtail; [11],10
same,"Plant response rating, Foxtail, Giant",giant foxtail; [17],90
same,"Foxtail, Giant plant response rating",giant foxtail; [12],20
same,Barnyardgrass plant response rating,"barnyardgrass [10]; 62 g ai/ha, scale 0 to 100 (0 no effect, 100 complete control)",0
same,Barnyardgrass plant response rating,barnyardgrass [10]; [13],0
same,Barnyardgrass plant response rating,barnyardgrass [10]; [14],25
same,"Plant response rating, Barnyardgrass",barnyardgrass [10]; [15],65
same,Cocklebur plant response rating (0 to 100 scale),cocklebur; [16],0
same,Cocklebur plant response rating,cocklebur; [11],0
same,"Plant response rating, Cocklebur",cocklebur; [17],0
same,Cocklebur plant response rating,cocklebur; [12],40
same,Pigweed plant response rating (0 to 100 scale),pigweed; [16],80
same,Pigweed plant response rating,pigweed; [11],60
same,"Plant response rating, Pigweed",pigweed; [17],100
same,Pigweed plant response rating,pigweed; [12],70
same,Velvetleaf plant response rating,velvetleaf; [11],10
same,"Plant response rating, Velvetleaf",velvetleaf; [17],100
same,Velvetleaf plant response rating,velvetleaf; [12],20
